Laboratory results reported in patent publication US20030109443A1, “Diagnosing, treating, and preventing cancer using cables” (priority 2001, published 2003).

Key:
[1] = tested on: Cables mRNA levels in HES cells; assay: Northern analysis of Cables mRNA after hormone treatment, HES cells; assay type: cell-based, human; conditions: vs untreated controls
Text: FIGS. 15A and 15B are images showing northern analysis of Cables mRNA levels in HES cells (FIG. 15A) and SK-UT2 cells (FIG. 15B) following progesterone treatment.
FIGS. 16A and 16B are images showing northern analysis of Cables mRNA levels in HES cells (FIG. 16A) and SK-UT2 cells (FIG. 16B) following progesterone or estrogen treatment.
(§1) Cell lines have been used to investigate the effect of hormonal regulation on Cables expression, as well as the effect of Cables overexpression on these cells. We have isolated RNA and protein from HES, Ishikawa, and SK-UT2 endometrial cells lines for analysis. The influence of progesterone and estrogen on Cables expression was evaluated in these cells. […] Western analysis confirmed that a protein product was present. Conversely, estrogen reduced the levels of Cables mRNA expression in these cell lines (FIG. 16A). There is was no hormonal effect on Cables mRNA expression in SK-UT2 cells, which are derived from a G3 human uterine cancer (FIGS. 15B and 16B).

[2] = tested on: Cables mRNA levels in Ishikawa cells; assay: Cables mRNA after hormone treatment, Ishikawa cells; assay type: cell-based; conditions: vs untreated controls
Protocol: as §1

cdk2 = cdk2 (UniProt P24941); assay: cell-based or functional assay

Chain of Cables (full length, expressed from a transfected construct) (Q9ESJ1 whole entry): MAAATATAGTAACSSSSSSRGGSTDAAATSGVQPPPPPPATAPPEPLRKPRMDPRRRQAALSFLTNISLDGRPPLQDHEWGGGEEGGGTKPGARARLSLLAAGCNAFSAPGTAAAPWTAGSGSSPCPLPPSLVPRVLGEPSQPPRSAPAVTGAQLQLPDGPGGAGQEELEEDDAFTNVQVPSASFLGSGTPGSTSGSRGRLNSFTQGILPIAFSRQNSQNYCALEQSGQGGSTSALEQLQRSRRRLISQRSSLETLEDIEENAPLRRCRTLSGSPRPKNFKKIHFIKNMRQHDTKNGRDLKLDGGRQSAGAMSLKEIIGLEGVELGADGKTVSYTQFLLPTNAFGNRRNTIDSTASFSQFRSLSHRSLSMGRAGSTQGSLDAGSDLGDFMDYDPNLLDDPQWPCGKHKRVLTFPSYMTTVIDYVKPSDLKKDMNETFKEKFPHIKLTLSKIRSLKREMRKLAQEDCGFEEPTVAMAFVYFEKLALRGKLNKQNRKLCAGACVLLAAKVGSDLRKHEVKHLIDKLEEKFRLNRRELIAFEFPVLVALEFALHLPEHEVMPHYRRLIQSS
Chain of Wee1 (P30291 whole entry): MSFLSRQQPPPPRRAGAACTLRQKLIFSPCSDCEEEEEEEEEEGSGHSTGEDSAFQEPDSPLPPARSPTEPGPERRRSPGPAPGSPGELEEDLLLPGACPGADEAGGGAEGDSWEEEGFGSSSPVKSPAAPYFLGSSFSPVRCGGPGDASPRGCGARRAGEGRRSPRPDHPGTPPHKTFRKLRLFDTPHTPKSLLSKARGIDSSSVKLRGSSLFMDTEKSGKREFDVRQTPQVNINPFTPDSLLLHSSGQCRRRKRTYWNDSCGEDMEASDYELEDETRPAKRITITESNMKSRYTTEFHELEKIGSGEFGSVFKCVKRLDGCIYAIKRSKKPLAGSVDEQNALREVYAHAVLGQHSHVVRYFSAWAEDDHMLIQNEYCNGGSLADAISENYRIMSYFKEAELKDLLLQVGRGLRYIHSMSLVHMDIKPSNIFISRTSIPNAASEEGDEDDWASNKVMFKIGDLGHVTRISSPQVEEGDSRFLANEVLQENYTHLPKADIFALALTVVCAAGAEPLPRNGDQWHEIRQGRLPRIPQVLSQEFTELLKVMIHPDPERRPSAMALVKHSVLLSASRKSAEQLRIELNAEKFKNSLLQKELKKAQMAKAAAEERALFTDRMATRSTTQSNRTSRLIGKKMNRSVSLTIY

Row | Molecule | Cables mRNA levels [1] | Cables mRNA levels [2] | level of tyrosine phosphorylation of cdk2 (cdk2 immunoprecipitation, antiphosphotyrosine western blot, COS7 cells coexpressing Cables and Wee1) (times basal level) (cdk2) | Y15-phosphorylated cdk2 in stable Cables cell lines against control cell lines (cdk2 immunoprecipitation, phospho-Tyr15 antibody) (cdk2)
1 | estrogen | reduced | reduced | – | –
2 | Wee1 (from UniProt P30291 1-646) (enzyme) | – | – | 30 | –
3 | CC(=O)[C@H]1CC[C@H]2[C@@H]3CCC4=CC(=O)CC[C@]4(C)[C@H]3CC[C@]12C [Progestin, progesterone] | dose dependent elevation | dose dependent elevation | – | –
4 | Cables (full length, expressed from a transfected construct) | – | – | – | 5 fold
